Laboratory results from patent publication US20030171377A1, “Antidiabetic agents” (priority 2001, published 2003).

Tests used:
[1] = test system: endogenous nuclear receptors in CV-1 cells; test: CV-1 Native Receptors Transcription Assay (MKNRCV1), Test C; format: cell-based, African green monkey; conditions: for MKNRCV1 % BRL @ 25 μM / MKNRCV1 % BRL @ 5 μM: percent activity of BRL 49653; for EC50: Chlorocebus sabaeus, CV-1 cells, 48 hours, unit inferred; for MKNRCV1 % BRL @ 5 μM: 5 μM (stated in the cell)
3T3-L1 preadipocytes = test: 3T3-L1 Adipocyte Differentiation Assay (ADPDIFF), Test A; format: cell-based; conditions: BODIPY lipid fluorescence, reported as % of BRL 49653 at 5 μM
Description: Cells are replenished with FBS containing media on day 5 of post-drug treatment and incubated for additional 4-6 days. Cells are stained with BODIPY a fluorescent lipophilic stain to quantitate the lipid content of the cells. The assay is optimized for a 96-well plate format. Approximately after 10 days of post-drug treatment, cells are fixed in 3% formalin solution for 15 min followed by staining with BODIPY (80 μg/ml) for 20 min at room temperature. The plate is then put through the CYTOFLUOR instrument to measure the fluorescence of BODIPY (excitation=485/20; emission=530/25).

[2] = test system: CV-1 cells (FATP promoter luciferase reporter, 300 nM BRL); test: ANTCV1 Antagonist Transcription Assay, Test B; format: cell-based, African green monkey; conditions: Chlorocebus sabaeus, 25 μM test compound with 300 nM BRL, 48 hrs, % BRL inhibition, read-out: ANTCV1 INHIB @ 25 μM

SMILES | MKNRCV1 % BRL @ 25 μM [1] [% BRL] | EC50 [1] [nM] | ADPDIFF % BRL @ 5 μM (3T3-L1 preadipocytes) [% BRL] | inhibition at 25 µM [2] [%] | MKNRCV1 % BRL @ 5 μM [1]
Cc1oc(-c2ccccc2)nc1CCOc1ccc(C[C@@H](C(=O)NS(C)(=O)=O)n2cccc2)cc1 | 97 | 3200 | 110 | -30 | 
Cc1oc(-c2ccccc2)nc1CCOc1ccc(C[C@H](C(=O)O)n2cccc2)cc1 |  |  | 96 |  | 87 @ 5 μM % BRL
CN(CCOc1ccc(C[C@@H](C(=O)O)n2cccc2)cc1)c1ccnc2cc(Cl)ccc12 | 83 |  | 1 | -87 | 
Cc1oc(-c2ccccc2)nc1CCOc1ccc(C[C@@H](C(=O)O)n2c(C)ccc2-c2ccccc2)cc1 | 24 |  | 2 | -3 | 
O=C(O)[C@H](Cc1ccc(OCc2ccccc2F)cc1)n1cccc1C(=O)C(F)(F)F | 18 |  | 14 | 28 | 
Cc1oc(-c2ccccc2)nc1CCOc1ccc(CC(C(=O)O)c2cccs2)cc1 (stereo not drawn) | 111 |  | 88 | -127 | 
Cc1oc(-c2ccccc2)nc1CCOc1ccc(C[C@@H](C(=O)O)n2ccc(Br)c2)cc1 | 85 | 60 | 84 | -57.5 | 
CC(=O)c1cccn1[C@@H](Cc1ccc(OCc2ccccc2F)cc1)C(=O)O | 25 |  | 3 | -40 | 
O=C(c1ccn(C(Cc2ccc(OCc3ccccc3F)cc2)C(=O)O)c1)C1CCCCC1 (stereo not drawn) | 28 |  | 12 | 1 | 
O=C(O)[C@H](Cc1ccc(OCc2ccccc2F)cc1)n1cccc1 | 92 | 1400 | 21 | -46 | 
CN(C/C=C/c1ccc(C[C@@H](C(=O)O)n2cccc2)cc1)c1ccccn1 | 92 | 900 | 94 | -36 | 
COC(=O)[C@H](Cc1ccc(/C=C/CN(C)c2ccccc2)cc1)n1cccc1 | 96 | 700 | 110 | 2 | 
Cc1oc(-c2ccccc2)nc1CCOc1ccc(CC(C(=O)O)c2ccncc2)cc1 (stereo not drawn) | 20 |  | 2 | 55 | 
Cc1oc(-c2ccccc2)nc1CCOc1ccc(C[C@@H](C(=O)O)n2c(C)cc(C(=O)C(F)(F)F)c2C)cc1 | 28 | 16000 | 2 | 12 | 
CN(CCCc1ccc(C[C@@H](C(=O)O)n2cccc2)cc1)c1ccccn1 | 64 |  | 113 |  | 
Cc1oc(-c2ccccc2)nc1CCOc1ccc(CC(C)(C)C(=O)O)cc1 [drawing 217] | 34 |  | 131 | 59 | 
Cc1oc(-c2ccccc2)nc1CCCc1ccc(CC(C(=O)O)c2ccccc2)cc1 (stereo not drawn) | 0.1122 |  |  |  | 
CCc1nnc(C(Cc2ccc(OCCc3nc(-c4ccccc4)oc3C)cc2)c2ccccc2)o1 (stereo not drawn) [drawing 225] | 61 |  | 161 | 47 | 
Cc1ccc(C)n1[C@@H](Cc1ccc(OCc2ccccc2F)cc1)C(=O)O | 34 |  | 2 |  | 
Cc1oc(-c2ccccc2)nc1CC#Cc1ccc(CC(C(=O)O)c2cccc(-c3ccccc3)c2)cc1 (stereo not drawn) |  |  |  | -3 | 48 @ 5 μM % BRL
Cc1oc(-c2ccccc2)nc1CCOc1ccc(CC(C(=O)O)n2ccc(C(=O)C3CCCCC3)c2)cc1 (stereo not drawn) | 83 | 4700 | 82 | -12 | 
Cc1cc(-c2cc(O)c(Sc3cccc(C(=O)O)c3)oc2=O)ccc1OCc1ccccc1 |  |  |  | -29 | 26 @ 5 μM % BRL
O=C(O)[C@H](Cc1ccc(OCCn2c(-c3ccccc3)nc3ccccc32)cc1)n1cccc1 | 39 |  | 19 | -69 | 
COC(=O)[C@H](Cc1ccc(/C=C/CN2CCC(c3ccccc3)CC2)cc1)n1cccc1 | 47 |  | 32 | 25 | 
Cc1oc(-c2ccccc2)nc1CC#Cc1ccc(CC(C(=O)O)c2cccnc2)cc1 (stereo not drawn) |  | 34000 |  | -15 | 49 @ 5 μM % BRL
